{
  "source": "patent US7030087B2",
  "about": "“Synthetic approach to designed chemical structures” (priority 1996, dated 2006)",
  "system": "ICAM-1",
  "assay": "ICAM-1 expression on endothelial cells (immunofluorescence, FACScan)",
  "type": "cell-based, human",
  "protocol": "In a first series of experiments, PF4 and βpep peptides were tested for their ability to prevent bFGF (fibroblast growth factor) mediated downregulation of ICAM-1. […] Simultaneously 100 μg/ml of each PF4, βpep-14, βpep-16, or medium was added. Mean ICAM-1 fluorescence intensity values were determined.\nSince the in vivo situation of tumor associated EC involves the low expression or even absence of ICAM-1, the next set of experiments aimed to study the ability to reinduce ICAM-I expression after bFBF preincubation. […] In these experiments, HUVEC were pretreated for 3 days with bFGF, subsequently PF4 was added for 3 days and, where indicated in the last 16 hours of culture 4 ng/ml TNFα was added. Human umbilical vein derived endothelial cells (HUVEC) were harvested from normal human umbilical cords by perfusion with 0.125% trypsin/EDTA as described previously. Cells were cultured in fibronectin (FN) coated tissue culture flasks in culture medium (RPMI-1640 with 20% human serum (HS), supplemented with 2 mM glutamine and 100 U/ml penicillin and 0.1 mg/ml streptomycin). Immunofluorescence using indirect PE-conjugated reagents required three separate incubations. 1×10^5 EC were fixed for 1 hour in 1% paraformaldehyde, resuspended in 20 μl appropriately diluted Mab and incubated for 1 hour on ice. Subsequently, cells were washed two times in PBS/BSA (0.1%) and incubated for another 30 minutes with biotinylated rabbit-anti-mouse Ig (Dako, Glostrup, Denmark). After another 2 washings, cells were incubated with streptavidin-phycoerythrin conjugate (Dako). Stained cells were analyzed on a FACScan flowcytometer. Data analysis was performed using PCLysys software (Becton Dickinson, Mountain View, Calif.). Statistical significance of observed differences was determined using the Student's t-test.\nThe energy of EC to stimulation with inflammatory cytokines was the subject of a next series of experiments. For these experiments, HUVEC (human vascular endothelial cells) were pretreated with 10 ng/ml bFGF for 3 days. Subsequently, cells are subcultured for 3 days with […] in the presence of PF4. For the last 16 hours of the culture 4 ng/ml TNFα was added to induce upregulation of ICAM-1. […] The regulation of ICAM-1 at the protein level was confirmed in Northern blot analysis for detection of ICAM-1 message. In these experiments, HUVEC were cultured for 3 days with bFGF and treated for the last 4 and 24 hours with PF4 (100 μg/ml). TNFα was added 2 hours before isolation of RNA. RNA from a subconfluent EC cultures (75 cm^2 Petri-dishes) incubated with bFGF for different time-points was isolated using an RNA-zol kit (Campro Scientific, Houston, Tex.). Total RNA (10 μg) for each sample was separated in a 0.8% formaldehyde-denaturing gel, transferred to nitrocellulose (Hybond N+, Amersham International, Amersham, UK) and hybridized to a ^32P-labelled 1.9 Kb c-DNA probe, containing the functional sequence of the human ICAM-1 gene (a gift from Dr. B. Seed). Membranes were washed at a high stringency in 0.2×SSC, 0.1% SDS at 50° C. for 1 hour. Filters were exposed to X-ray films (Kodak X-omat, Eastman Kodak Company, Rochester, N.Y.) using an intensifying screen at −80° C. for not less than 12 hr. Autoradiograms were subjected to scanning using a laser densitometer (Model GS670, Bio-Rad, Hercules, Calif.) and data were analysed with the Molecular Analyst PC™ software. The intensity of the major ICAM-1 mRNA transcript was normalized with respect to actin mRNA expression used as a control.",
  "data": [
    {"substance": "platelet factor 4 [PF4]", "values": [
      {"measurement": "bFGF mediated downregulation of ICAM-1 (in words)", "setting": "10 ng/ml bFGF for 3 days, 100 μg/ml added simultaneously", "result": "did not result in the loss of ICAM-1 expression"},
      {"measurement": "expression of ICAM-1 (in words)", "setting": "100 μg/ml, without bFGF", "result": "enhanced the expression of ICAM-1"},
      {"measurement": "decreased inflammatory response (TNFα upregulation of ICAM-1) of angiogenic stimulated EC (in words)", "setting": "HUVEC 3 days 10 ng/ml bFGF, then 3 days with bFGF and test agent, 4 ng/ml TNFα last 16 hours", "result": "overcome"},
      {"measurement": "reinduction of ICAM-1 expression after bFGF preincubation (in words)", "setting": "HUVEC pretreated 3 days with bFGF, then 100 μg/ml for 3 days in the presence of bFGF", "result": "reinduction of ICAM-1"}
    ]}
  ]
}
